Active and inactive are the calls of the source. The rule behind the calls is not given here.
Key:
[1] = biological target: T1, Transient receptor potential cation channel subfamily M member 2 (Homo sapiens, UniProt O94759); experiment: Inhibition of human TRPM2 expressed in HEK293T cells cotransfected with GFP assessed as reduction in ADPR-induced current at 30 uM by whole cell patch-clamp method relative to control; assay type: cell-based
[2] = biological target: T1, Transient receptor potential cation channel subfamily M member 2; experiment: Inhibition of human TRPM2 expressed in HEK293T cells cotransfected with GFP assessed as reduction in ADPR-induced current by whole cell patch-clamp method; assay type: cell-based
[3] = biological target: Transient receptor potential cation channel subfamily M member 8 (Rattus norvegicus) (UniProt Q8R455); experiment: Inhibition of rat TRPM8 expressed in HEK293T cells cotransfected with GFP assessed as inhibition of […]-induced current at 30 uM by whole cell patch-clamp method relative to control; assay type: cell-based
Sequence of Transient receptor potential cation channel subfamily M member 8 (Rattus norvegicus) (Q8R455 whole entry, looked up): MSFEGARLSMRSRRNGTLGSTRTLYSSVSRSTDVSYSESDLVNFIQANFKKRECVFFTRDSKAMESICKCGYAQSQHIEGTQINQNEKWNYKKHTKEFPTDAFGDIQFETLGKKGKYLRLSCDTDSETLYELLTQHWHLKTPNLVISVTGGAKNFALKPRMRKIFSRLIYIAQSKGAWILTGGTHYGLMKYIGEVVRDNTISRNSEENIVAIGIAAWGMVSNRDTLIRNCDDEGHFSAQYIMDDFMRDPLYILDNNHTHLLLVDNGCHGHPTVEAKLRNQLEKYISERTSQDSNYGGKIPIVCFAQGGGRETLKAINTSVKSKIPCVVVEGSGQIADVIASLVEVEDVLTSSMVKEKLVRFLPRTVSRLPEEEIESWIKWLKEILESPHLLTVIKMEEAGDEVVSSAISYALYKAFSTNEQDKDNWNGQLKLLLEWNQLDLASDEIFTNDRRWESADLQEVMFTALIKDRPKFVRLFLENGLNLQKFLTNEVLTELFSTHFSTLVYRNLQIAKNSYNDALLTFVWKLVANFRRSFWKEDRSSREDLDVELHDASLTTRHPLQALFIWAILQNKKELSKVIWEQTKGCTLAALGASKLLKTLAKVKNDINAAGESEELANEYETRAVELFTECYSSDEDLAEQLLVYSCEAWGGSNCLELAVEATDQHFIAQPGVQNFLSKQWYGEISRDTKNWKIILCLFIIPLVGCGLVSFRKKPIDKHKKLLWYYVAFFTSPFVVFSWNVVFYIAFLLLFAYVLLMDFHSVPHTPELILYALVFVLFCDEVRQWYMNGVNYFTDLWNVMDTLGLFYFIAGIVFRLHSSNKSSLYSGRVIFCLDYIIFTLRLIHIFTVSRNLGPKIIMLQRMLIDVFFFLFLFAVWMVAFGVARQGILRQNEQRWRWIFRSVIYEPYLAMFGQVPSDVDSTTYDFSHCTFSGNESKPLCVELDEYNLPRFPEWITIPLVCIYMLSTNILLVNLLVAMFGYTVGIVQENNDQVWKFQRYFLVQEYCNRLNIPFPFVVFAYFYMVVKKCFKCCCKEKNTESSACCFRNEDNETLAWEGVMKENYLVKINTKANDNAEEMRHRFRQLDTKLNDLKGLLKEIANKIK

[4] = biological target: Transient receptor potential cation channel subfamily V member 1 (Homo sapiens) (UniProt Q8NER1); experiment: Inhibition of TRPV1 (unknown origin) assessed as inhibition of capsaicin-induced current at 30 uM by whole cell patch-clamp method relative to control
Sequence of Transient receptor potential cation channel subfamily V member 1 (Homo sapiens) (Q8NER1 whole entry): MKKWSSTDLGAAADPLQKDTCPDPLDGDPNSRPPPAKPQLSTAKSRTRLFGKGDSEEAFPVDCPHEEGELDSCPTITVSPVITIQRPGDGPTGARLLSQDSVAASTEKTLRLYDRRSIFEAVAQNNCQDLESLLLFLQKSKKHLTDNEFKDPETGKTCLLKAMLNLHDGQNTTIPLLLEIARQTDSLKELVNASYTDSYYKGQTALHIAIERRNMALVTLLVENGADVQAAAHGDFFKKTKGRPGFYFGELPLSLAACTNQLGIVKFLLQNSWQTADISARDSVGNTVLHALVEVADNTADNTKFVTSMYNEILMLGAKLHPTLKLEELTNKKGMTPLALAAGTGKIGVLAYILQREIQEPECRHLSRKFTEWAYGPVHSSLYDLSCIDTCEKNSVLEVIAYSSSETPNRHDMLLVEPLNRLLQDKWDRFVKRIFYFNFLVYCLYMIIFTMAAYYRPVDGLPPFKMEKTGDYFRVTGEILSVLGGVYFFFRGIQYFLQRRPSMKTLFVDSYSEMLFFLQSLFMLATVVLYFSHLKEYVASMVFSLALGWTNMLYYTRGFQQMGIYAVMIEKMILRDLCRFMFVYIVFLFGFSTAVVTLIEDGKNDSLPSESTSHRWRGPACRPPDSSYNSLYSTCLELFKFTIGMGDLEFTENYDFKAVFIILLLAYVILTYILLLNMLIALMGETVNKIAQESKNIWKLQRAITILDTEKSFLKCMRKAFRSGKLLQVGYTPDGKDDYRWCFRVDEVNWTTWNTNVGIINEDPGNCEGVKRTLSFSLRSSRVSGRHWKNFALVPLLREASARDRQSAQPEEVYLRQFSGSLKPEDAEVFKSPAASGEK

SH-SY5Y [5] = experiment: Neuroprotection against H202-induced cell death in human SH-SY5Y cells assessed as increase in cell viability at 100 uM after 24 hrs by CCK8 assay; assay type: functional, cell-based
SH-SY5Y [6] = experiment: Neuroprotection against H202-induced cell death in TRPM2 knockdown human SH-SY5Y cells assessed as increase in cell viability at 100 uM after 24 hrs by CCK8 assay; assay type: functional, cell-based
SH-SY5Y [7] = experiment: Cytotoxicity against human SH-SY5Y cells at 30 uM measured after 24 hrs by CCK-8 assay; assay type: cell-based
[8] = biological target: T1, Transient receptor potential cation channel subfamily M member 2; experiment: Inhibition of human TRPM2 expressed in HEK293T cells cotransfected with GFP assessed as reduction in ADPR-induced current at 10 uM by whole cell patch-clamp method relative to control; assay type: cell-based

T1 sequence (O94759 whole entry): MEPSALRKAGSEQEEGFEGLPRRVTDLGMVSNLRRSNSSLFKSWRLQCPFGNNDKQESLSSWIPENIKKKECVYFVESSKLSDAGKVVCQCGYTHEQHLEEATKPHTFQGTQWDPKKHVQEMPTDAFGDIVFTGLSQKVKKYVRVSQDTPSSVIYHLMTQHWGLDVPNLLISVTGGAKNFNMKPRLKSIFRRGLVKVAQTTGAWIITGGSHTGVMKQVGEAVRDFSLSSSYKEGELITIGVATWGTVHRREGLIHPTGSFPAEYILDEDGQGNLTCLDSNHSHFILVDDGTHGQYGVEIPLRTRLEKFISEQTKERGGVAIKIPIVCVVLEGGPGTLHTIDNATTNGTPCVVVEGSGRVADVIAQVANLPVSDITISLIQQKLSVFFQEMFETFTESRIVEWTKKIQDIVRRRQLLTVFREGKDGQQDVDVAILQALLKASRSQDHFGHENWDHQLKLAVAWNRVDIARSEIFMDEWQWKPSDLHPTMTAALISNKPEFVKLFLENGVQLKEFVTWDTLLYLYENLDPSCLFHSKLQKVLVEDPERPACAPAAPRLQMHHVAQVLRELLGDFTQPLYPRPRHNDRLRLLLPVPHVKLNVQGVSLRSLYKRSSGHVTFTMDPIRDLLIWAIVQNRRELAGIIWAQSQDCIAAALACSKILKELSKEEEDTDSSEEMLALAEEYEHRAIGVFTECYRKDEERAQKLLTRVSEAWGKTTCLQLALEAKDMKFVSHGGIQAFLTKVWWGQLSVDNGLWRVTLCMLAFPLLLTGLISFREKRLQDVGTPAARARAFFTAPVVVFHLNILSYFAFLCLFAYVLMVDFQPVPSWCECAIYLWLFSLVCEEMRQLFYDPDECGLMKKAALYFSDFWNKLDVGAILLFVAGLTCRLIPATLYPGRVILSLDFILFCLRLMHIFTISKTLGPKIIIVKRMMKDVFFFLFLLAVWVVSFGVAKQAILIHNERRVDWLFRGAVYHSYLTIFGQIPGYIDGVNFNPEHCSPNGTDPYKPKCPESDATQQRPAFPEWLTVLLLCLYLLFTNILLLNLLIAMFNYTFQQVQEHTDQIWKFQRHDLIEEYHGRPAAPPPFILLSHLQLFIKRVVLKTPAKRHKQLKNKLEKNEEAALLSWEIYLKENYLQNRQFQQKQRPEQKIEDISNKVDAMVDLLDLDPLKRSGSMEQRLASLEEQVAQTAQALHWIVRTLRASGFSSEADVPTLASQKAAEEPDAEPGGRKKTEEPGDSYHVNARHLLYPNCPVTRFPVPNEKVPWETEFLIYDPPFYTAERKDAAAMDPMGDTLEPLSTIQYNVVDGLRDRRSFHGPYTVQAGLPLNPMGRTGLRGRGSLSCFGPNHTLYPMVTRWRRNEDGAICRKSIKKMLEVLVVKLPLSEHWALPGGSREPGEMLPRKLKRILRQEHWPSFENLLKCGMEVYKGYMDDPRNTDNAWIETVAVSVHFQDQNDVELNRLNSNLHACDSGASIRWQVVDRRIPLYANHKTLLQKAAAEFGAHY

inhibition [1] [%]	IC50 [2] [µM]	inhibition [3] [%]	inhibition [4] [%]	inhibition [8] [%]	Structure (SMILES)	Activity (SH-SY5Y [5])	Activity (SH-SY5Y [6])	Activity (SH-SY5Y [7])
90	8.1	36	22	–	CCN(CC)CCn1c2ccccc2n2c(C(=O)c3cc4ccccc4o3)c(C)nc12	Active	inactive	Non-Toxic
90	6.2	26	40	–	CCN(CC)CCn1c2ccccc2n2c(C(=O)c3ccc(-c4ccccc4)cc3)c(C)nc12	Active	inactive	Non-Toxic
–	–	–	–	50	CCN(CC)CCn1c2ccccc2n2c(C(C)=O)c(C)nc12	–	–	–

— ChEMBL document CHEMBL4842361, “Design, synthesis and biological activities of benzo[d]imidazo[1,2-a]imidazole derivatives as TRPM2-specfic inhibitors” (Eur J Med Chem, 2021)
